{
  "source": "paper PMC7344390",
  "about": "“Leptogorgins A–C, Humulane Sesquiterpenoids from the Vietnamese Gorgonian Leptogorgia sp” (Marine Drugs, 2020)",
  "key": {"[1]": {"test_system": "22Rv1 cells (human drug-resistant prostate cancer cells)", "assay": "In vitro MTT-based drug sensitivity assay, 22Rv1 cells", "conditions": "72 h treatment, read-out: IC50 (cell viability, MTT)", "method": "(§1) The human prostate cancer cells 22Rv1 and human prostate non-cancer cells PNT2 were purchased from ATCC. Cell lines were cultured according to the manufacturer’s instructions in 10% FBS/RPMI media (Invitrogen, Carlsbad, CA, USA) and handled as described in [29].\n(§2) The in vitro cytotoxic activities of the isolated substances were evaluated by MTT assays. The assays were performed as described previously. In brief, cells were seeded in 96-well plates (6 × 10^3 cells/well), incubated overnight, and treated with the tested compounds for 72 h. Next, 10 μL/well of MTT reagent was added and the plates were incubated for 2 h. The media were aspirated and the plates were dried. The formed formazan crystals were dissolved in DMSO and the cell viability was measured using an Infinite F200PRO reader (TECAN, Männedorf, Switzerland). Results were calculated by the GraphPad Prism software v. 7.05 (GraphPad Prism software Inc., La Jolla, CA, USA) and are represented as the IC50 of the compounds against the control cells treated with the solvent alone."}, "[2]": {"test_system": "PNT2 cells (human prostate non-cancer cells)", "assay": "In vitro MTT-based drug sensitivity assay, PNT2 cells", "conditions": "72 h treatment, read-out: IC50 (cell viability, MTT)", "method": "as §1, §2"}, "[3]": {"test_system": "HT-29", "set-up": "method as in PMID 12881017", "conditions": "human cancer HT-29 cell line; more active than curcumin; cited from earlier work"}, "[4]": {"test_system": "CaCO-2", "set-up": "method as in PMID 12881017", "conditions": "human cancer CaCO-2 cell line; more active than curcumin; cited from earlier work"}, "[5]": {"test_system": "NCF-7", "set-up": "method as in PMID 12881017", "conditions": "human cancer NCF-7 cell line; more active than curcumin; cited from earlier work"}},
  "data": [
    {"smiles": "CC1=CCC(C)(C)C=CC(=O)C(CO)=CC(O)C1", "note": "(stereo not drawn) [Compound 1, 4-oxohumula-2E,5E,9E-trien-7S,12-diol]", "values": [
      {"measurement": "IC50", "setting": "[1]", "value": 31, "unit": "µM"},
      {"measurement": "IC50", "setting": "[2]", "value": 35.8, "unit": "µM"}
    ]},
    {"smiles": "CC(=O)OC1C=C(CO)C(=O)C=CC(C)(C)CC=C(C)C1", "note": "(stereo not drawn) [Compound 2, 4-oxohumula-2E,5E,9E-trien-7S-acetate,12-ol]", "values": [
      {"measurement": "IC50", "setting": "[1]", "value": "> 100", "unit": "µM"},
      {"measurement": "IC50", "setting": "[2]", "value": "> 100", "unit": "µM"}
    ]},
    {"smiles": "COc1cccc2c1C(=O)c1c(O)c3c(c(O)c1C2=O)C[C@@](O)(C(=O)CO)C[C@@H]3O[C@H]1C[C@H](N)[C@H](O)[C@H](C)O1", "note": "[Doxorubicine]", "values": [
      {"measurement": "IC50", "setting": "[1]", "value": 0.084, "unit": "µM"},
      {"measurement": "IC50", "setting": "[2]", "value": 1.12, "unit": "µM"}
    ]},
    {"smiles": "C/C1=C\\CC(C)(C)/C=C/C(=O)/C(C)=C/CC1", "note": "[zurumbone, 2,6,9-humulatriene-8-one]", "values": [
      {"measurement": "antitumor activity", "setting": "[3]", "value": "active"},
      {"measurement": "antitumor activity", "setting": "[4]", "value": "active"},
      {"measurement": "antitumor activity", "setting": "[5]", "value": "active"}
    ]}
  ]
}
